What was measured:
Test in all cases: relative viability (nuclei count vs DMSO), 5 days (fraction); higher = more cells survive
[1] = system: NCI-H727
How it was run: (§1)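 Lung cancer cell lines, seeded in 1536-well plates, were treated the following day by pin tool with a single drug or with five library-drug doses (not always all listed) in √10 steps on top of a fixed anchor-drug dose. Cells were fixed and nuclei stained in one step after 5 days, and nuclei were counted. Relative viability is the nuclei count for treated wells divided by that for vehicle wells, reported as medians of duplicate plates.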

[2] = system: NCI-H1944
How it was run: as §1

[3] = system: NCI-H2087
How it was run: as §1

[4] = system: NCI-H1792
How it was run: as §1

[5] = system: BEN
How it was run: as §1

[6] = system: SK-LU-1
How it was run: as §1

[7] = system: RERF-LC-KJ
How it was run: as §1

[8] = system: NCI-H647
How it was run: as §1

[9] = system: CAL-12T
How it was run: as §1

[10] = system: NCI-H1793
How it was run: as §1

[11] = system: NCI-H2405
How it was run: as §1

[12] = system: HCC-827
How it was run: as §1

[13] = system: NCI-H2228
How it was run: as §1

[14] = system: NCI-H1650
How it was run: as §1

[15] = system: NCI-H1437
How it was run: as §1

[16] = system: LXF-289
How it was run: as §1

[17] = system: NCI-H1395
How it was run: as §1

[18] = system: LCLC-97TM1
How it was run: as §1

[19] = system: 201T
How it was run: as §1

[20] = system: NCI-H3122
How it was run: as §1

[21] = system: NCI-H322M
How it was run: as §1

For `COc1nc(C)cnc1NS(=O)(=O)c1cccnc1-c1ccc(-c2nnco2)cc1` [Zibotentan] + CS(=O)(=O)CCNCc1ccc(-c2ccc3ncnc(Nc4ccc(OCc5cccc(F)c5)c(Cl)c4)c3c2)o1 [Lapatinib] (partner 2 µM), the relative viability ([1]; first compound 0.08 µM) was 0.879, the relative viability ([1]; first compound 0.253 µM) was 0.739 and the relative viability ([1]; first compound 0.8 µM) was 0.781. It also gave a relative viability ([1]; first compound 2.53 µM) of 1.16, a relative viability ([2]; first compound 0.08 µM) of 1.06 and a relative viability ([2]; first compound 0.253 µM) of 0.7. The relative viability ([2]; first compound 0.8 µM) was 0.747, the relative viability ([2]; first compound 2.53 µM) was 0.762 and the relative viability ([3]; first compound 0.08 µM) was 1.17. For the same compound, the relative viability ([3]; first compound 0.253 µM) was 0.955, the relative viability ([3]; first compound 0.8 µM) was 1.06 and the relative viability ([3]; first compound 2.53 µM) was 1.09. It also gave a relative viability ([4]; first compound 0.08 µM) of 1.01, a relative viability ([4]; first compound 0.253 µM) of 0.896 and a relative viability ([4]; first compound 0.8 µM) of 0.816. The relative viability ([4]; first compound 2.53 µM) was 0.848, the relative viability ([5]; first compound 0.08 µM) was 0.762 and the relative viability ([5]; first compound 0.253 µM) was 0.721. It also gave a relative viability ([5]; first compound 0.8 µM) of 0.68, a relative viability ([5]; first compound 2.53 µM) of 0.605 and a relative viability ([6]; first compound 0.08 µM) of 0.831. The relative viability ([6]; first compound 0.253 µM) was 0.766, the relative viability ([6]; first compound 0.8 µM) was 0.928 and the relative viability ([6]; first compound 2.53 µM) was 0.878. It also gave a relative viability ([7]; first compound 0.08 µM) of 0.89, a relative viability ([7]; first compound 0.253 µM) of 0.807 and a relative viability ([7]; first compound 0.8 µM) of 0.878. It also gave a relative viability ([7]; first compound 2.53 µM) of 0.845, a relative viability ([8]; first compound 0.08 µM) of 1.23 and a relative viability ([8]; first compound 0.253 µM) of 0.924. The relative viability ([8]; first compound 0.8 µM) was 0.968, the relative viability ([8]; first compound 2.53 µM) was 1.06 and the relative viability ([9]; first compound 0.08 µM) was 0.606. The relative viability ([9]; first compound 0.8 µM) was 0.55, the relative viability ([9]; first compound 2.53 µM) was 0.652 and the relative viability ([10]; first compound 0.08 µM) was 0.903. It also gave a relative viability ([10]; first compound 0.253 µM) of 0.645, a relative viability ([10]; first compound 0.8 µM) of 0.596 and a relative viability ([10]; first compound 2.53 µM) of 0.938. For the same compound, the relative viability ([11]; first compound 0.08 µM) was 1.18, the relative viability ([11]; first compound 0.253 µM) was 0.84 and the relative viability ([11]; first compound 0.8 µM) was 1.06. For the same compound, the relative viability ([11]; first compound 2.53 µM) was 1.09, the relative viability ([12]; first compound 0.08 µM) was 0.157 and the relative viability ([12]; first compound 0.253 µM) was 0.191. The relative viability ([12]; first compound 0.8 µM) was 0.214, the relative viability ([12]; first compound 2.53 µM) was 0.223 and the relative viability ([13]; first compound 0.08 µM) was 1.41. It also gave a relative viability ([13]; first compound 0.253 µM) of 1, a relative viability ([13]; first compound 0.8 µM) of 0.989 and a relative viability ([13]; first compound 2.53 µM) of 1.1. It also gave a relative viability ([14]; first compound 0.08 µM) of 0.732, a relative viability ([14]; first compound 0.8 µM) of 0.781 and a relative viability ([14]; first compound 2.53 µM) of 0.813. It also gave a relative viability ([15]; first compound 0.08 µM) of 0.73, a relative viability ([15]; first compound 0.253 µM) of 0.557 and a relative viability ([15]; first compound 0.8 µM) of 0.804. For the same compound, the relative viability ([15]; first compound 2.53 µM) was 0.827, the relative viability ([16]; first compound 0.08 µM) was 0.873 and the relative viability ([16]; first compound 0.253 µM) was 0.886. For the same compound, the relative viability ([16]; first compound 0.8 µM) was 0.93, the relative viability ([16]; first compound 2.53 µM) was 0.878 and the relative viability ([17]; first compound 0.08 µM) was 1.08. The relative viability ([17]; first compound 0.253 µM) was 0.883, the relative viability ([17]; first compound 0.8 µM) was 0.952 and the relative viability ([17]; first compound 2.53 µM) was 1.08. For the same compound, the relative viability ([18]; first compound 0.08 µM) was 1.01, the relative viability ([18]; first compound 0.253 µM) was 0.95 and the relative viability ([18]; first compound 0.8 µM) was 0.841. For the same compound, the relative viability ([18]; first compound 2.53 µM) was 0.93, the relative viability ([19]; first compound 0.08 µM) was 1.03 and the relative viability ([19]; first compound 0.253 µM) was 0.977. It also gave a relative viability ([19]; first compound 0.8 µM) of 1.11, a relative viability ([19]; first compound 2.53 µM) of 1.02 and a relative viability ([20]; first compound 0.08 µM) of 0.99. For the same compound, the relative viability ([20]; first compound 0.253 µM) was 1.03, the relative viability ([20]; first compound 0.8 µM) was 1.03 and the relative viability ([20]; first compound 2.53 µM) was 1.01. For the same compound, the relative viability ([21]; first compound 0.08 µM) was 0.553, the relative viability ([21]; first compound 0.253 µM) was 0.621 and the relative viability ([21]; first compound 0.8 µM) was 0.582. It also gave a relative viability ([21]; first compound 2.53 µM) of 0.624.

Source: the supplement of paper PMC10307832
